How the values were obtained:
[1] = mouse, in vivo, 5 mg/kg/day
ApoE/LDLR−/− mice [2] = test: MRI assessment of endothelium-dependent vasodilatation (FMD in femoral artery, Ach response in abdominal aorta), young mice (Example 3); type: in vivo
Experimental: Mice were randomly assigned to one of four experimental groups: control (untreated group) and three groups treated with vitamin K2 at a dose of 0.05, 0.5, and 5 mg/kg b.w./day, respectively. End-point measurements were performed at the age of 10-16 weeks.
Magnetic resonance imaging (MRI) experiments were performed using a 9.4T scanner (BioSpec 94/20 USR, Bruker, Germany) located in the Department of Magnetic Resonance Imaging, Institute of Nuclear Physics, Polish Academy of Sciences in Krakow. During the experiment, mice were anaesthetized using isoflurane (Aerrane, Baxter Sp. z o. o., Poland, 1.7 vol %) in an oxygen and air (1:2) mixture and imaged in the supine position. Activity of the heart, respiration, and body temperature (maintained at 37° C. using circulating warm water) were monitored using a Monitoring and Gating System (SA Inc., Stony Brook, N.Y., USA).
Endothelial function was assessed based on vascular responses to acetylcholine (Ach) administration in brachiocephalic artery (BCA), left common carotid artery (LCA) (FIGS. 6 A and B) and abdominal aorta (AA) (FIG. 6C) as well as to responses to increase in flow (flow-mediated dilatation, FMD) in femoral artery (FA) (FIG. 6D) as described in Bar A, Skorka T, Jasinski K, Sternak M, Bartel Ż, Tyrankiewicz U, et al. Retrospectively-gated MRI for in vivo assessment of endothelium-dependent vasodilatation and endothelial permeability in murine models of endothelial dysfunction. NMR Biomed 2016; 29(8):1088.; Sternak M, Bar A, Adamski M G, Mohaissen T, Marczyk B, Kieronska A, et al. The Deletion of Endothelial Sodium Channel α (αENaC) Impairs Endothelium-Dependent Vasodilation and Endothelial Barrier Integrity in Endotoxemia in Vivo. Front Pharmacol 2018; 9:178. doi:10.3389/fphar.2018.00178.; and Bar A, Olkowicz M, Tyrankiewicz U, Kus E, Jasinski K, Smolenski R T, et al. Functional and Biochemical Endothelial Profiling In Vivo in a Murine Model of Endothelial Dysfunction; Comparison of Effects of 1-Methylnicotinamide and Angiotensin-converting Enzyme Inhibitor. Front Pharmacol 2017; 8:183. doi:10.3389/fphar.2017.00183.).
Vasomotor response was examined by comparing two time-resolved 3D images of the vessels prior to and 25 minutes after intraperitoneal Ach administration (Sigma-Aldrich, Poznan Poland: 50 μl, 16.6 mg/kg), as well as prior to and 5 minutes after vessel occlusion. Images were acquired using the cine IntraGate™ FLASH 3D sequence, reconstructed with the IntraGate 1.2.b.2 macro (Bruker). End-diastolic volumes of vessels were analyzed using ImageJ software 1.46r (NIH Bethesda, Md., USA) and scripts written in Matlab (MathWorks, Natick, Mass., USA). Imaging parameters included the following: repetition time (TR)—6.4 ms, echo time (TE)—1.4 ms, field of view (FOV) −30×30×5 mm3, matrix size—256×256×30, flip angle (FA)—30°, and number of accumulations (NA)—15, reconstructed to 7 cardiac frames. Total scan time was 10 minutes.

ApoE/LDLR−/− mice [3] = test: Nitrite and nitrate concentration in plasma, older mice (Example 3); type: in vivo; settings: 0.03 and 10 mg/kg b.w./day, eight weeks
ApoE/LDLR−/− mice [4] = test: Nitrite and nitrate concentration in plasma, HPLC-based ENO-20 (Example 2); type: in vivo; settings: two months; for increase in NO2− concentration in plasma: vs untreated
Experimental: Nitrite (NO2^−) and nitrate (NO3^−) concentration in plasma—HPLC-based ENO-20
Blood samples were collected from heart into test tubes containing additional anticoagulant and centrifuged at 1000 g for 10 min at 4° C. The samples were used for HPLC measurement of nitrate (NO3^−) and nitrite (NO2^−) concentrations in plasma by an ENO-20 NOx Analyzer.

[5] = 0.05 mg/kg b.w./day, eight weeks
[6] = 0.05 mg/kg b.w./day, four weeks, 15-week-old mice

Q: Which “concentration of MK4 2,3-epoxide in plasma” value [1] does the source give for CC(C)=CCC/C(C)=C/CC/C(C)=C/CC/C(C)=C/CC/C(C)=C/CC/C(C)=C/CC/C(C)=C/CC1=C(C)C(=O)c2ccccc2C1=O [MK-7, menaquinone-7] here?
A: The value was “maintained at similar level in all groups”.

Q: And the “plasma concentration of MK-4” value [1]?
A: The value was “dose-dependent increase”.

Q: What about the “vitamin K1 and K1 2,3-epoxide plasma concentration” value [1] of the same compound?
A: Its value is “tent to decrease with increasing dose”.

Q: And the “Ach response in AA, volume changes” value (ApoE/LDLR−/− mice [2]; [5])?
A: The value was −0.65%.

Q: What about the “FMD in FA, volume changes” value (ApoE/LDLR−/− mice [2]; [5]) of the same compound?
A: Its value is 28.34%.

Q: What about the “Ach response in AA, volume changes” value (ApoE/LDLR−/− mice [2]; [6]) of the same compound?
A: The value was −1.59%.

Q: And the “FMD in FA, volume changes” value (ApoE/LDLR−/− mice [2]; [6])?
A: The value was 33.26%.

Q: What about the “Ach response in AA, volume changes” value (ApoE/LDLR−/− mice [2]; 0.5 mg/kg b.w./day, two weeks) of the same compound?
A: Its value is 1.52%.

Q: What about the “FMD in FA, volume changes” value (ApoE/LDLR−/− mice [2]; 0.5 mg/kg b.w./day, two weeks) of the same compound?
A: The value was 28.57%.

Q: What about the “Ach response in AA, volume changes” value (ApoE/LDLR−/− mice [2]; 5 mg/kg b.w./day, two weeks) of the same compound?
A: Its value is 0.16%.

Q: And the “FMD in FA, volume changes” value (ApoE/LDLR−/− mice [2]; 5 mg/kg b.w./day, two weeks)?
A: Its value is 26.55%.

Q: And the “concentration of NO3− in plasma” value (ApoE/LDLR−/− mice [3])?
A: The value was “did not change significantly”.

Q: What about the “concentration of NO3− in plasma” value (ApoE/LDLR−/− mice [4]; 0.03 and 10 mg/kg b.w./day) of the same compound?
A: Its value is “did not change significantly”.

Q: What about the “increase in NO2− concentration in plasma” value (ApoE/LDLR−/− mice [4]; high dose 10 mg/kg b.w./day) of the same compound?
A: Its value is roughly 42%.

Q: What about the “increase in NO2− concentration in plasma” value (ApoE/LDLR−/− mice [4]; low dose 0.03 mg/kg b.w./day) of the same compound?
A: The value was “about 58%”.
